Data reported in ChEMBL document CHEMBL3745701, “Bioactive minor components of the total salvianolic acids injection prepared from Salvia miltiorrhiza Bge” (Bioorg Med Chem Lett, 2016).

Key:
[1] = molecular target: NAD(P)H dehydrogenase [quinone] 1 (Mus musculus) (UniProt Q64669); assay: Induction of NQO1 activity in mouse Hepa-1c1c7 cells at 20 uM after 24 hrs by MTT assay relative to control; type: cell-based
[2] = molecular target: NAD(P)H dehydrogenase [quinone] 1 (Mus musculus) (UniProt Q64669); assay: Induction of NQO1 activity in mouse Hepa-1c1c7 cells at 10 uM after 24 hrs by MTT assay relative to control; type: cell-based
[3] = Antioxidant activity assessed as DPPH radical scavenging activity at 0.05 mM after 30 mins; type: physicochemical; details: 0.5 h, 50 µM
[4] = Cytotoxicity against mouse Hepa-1c1c7 cells assessed as cell viability at 20 uM after 24 hrs by crystal violet staining-based assay; details: read-out: Activity
[5] = Cytotoxicity against mouse Hepa-1c1c7 cells assessed as cell viability at 10 uM after 24 hrs by crystal violet staining-based assay; details: read-out: Activity
[6] = Antioxidant activity assessed as DPPH radical scavenging activity at 0.125 mM after 30 mins; type: physicochemical; details: 0.5 h, 125 µM
[7] = Antioxidant activity assessed as DPPH radical scavenging activity at 0.5 mM after 30 mins; type: physicochemical; details: 0.5 h, 500 µM
[8] = Antioxidant activity assessed as DPPH radical scavenging activity at 2 mM after 30 mins; type: physicochemical; details: 0.5 h, 2000 µM

Sequence of NAD(P)H dehydrogenase [quinone] 1 (Mus musculus) (Q64669 whole entry): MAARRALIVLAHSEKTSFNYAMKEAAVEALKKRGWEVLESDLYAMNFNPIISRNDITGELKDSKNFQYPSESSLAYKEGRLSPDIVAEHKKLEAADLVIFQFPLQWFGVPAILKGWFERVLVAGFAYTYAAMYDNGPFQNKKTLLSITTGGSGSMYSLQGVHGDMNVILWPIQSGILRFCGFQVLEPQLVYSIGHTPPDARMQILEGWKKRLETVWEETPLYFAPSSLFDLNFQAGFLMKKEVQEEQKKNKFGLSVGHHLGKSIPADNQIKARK

Row | Compound | fold change (FC) [1] | fold change (FC) [2] | inhibition (INH) [3] | viability at 24 h, 20 µM [4] | viability at 24 h, 10 µM [5] | inhibition (INH) [6] | inhibition (INH) [7] | inhibition (INH) [8]
1 | O=C(/C=C/c1ccc(O)c(O)c1/C(=C/c1ccc(O)c(O)c1)C(=O)O[C@@H](Cc1ccc(O)c(O)c1)C(=O)O)O[C@@H](Cc1ccc(O)c(O)c1)C(=O)O | 2.6 | 1.4 | 4.4% | 88% | 94% | 8.1% | 14.8% | 53.6%
2 | O=c1cc(-c2ccc(Br)cc2)oc2ccccc12 | – | 2.9 | – | – | 109% | – | – | –
3 | O=C(/C=C/c1ccc(O)c2c1[C@@H](C(=O)O[C@@H](Cc1ccc(O)c(O)c1)C(=O)O)[C@H](c1ccc(O)c(O)c1)O2)O[C@@H](Cc1ccc(O)c(O)c1)C(=O)O | 1.7 | 1.2 | 42.1% | 82% | 97% | 64.9% | 77.1% | 84.3%
4 | O=C(/C=C/c1ccc(O)c2c1[C@@H](C(=O)O[C@H](Cc1ccc(O)c(O)c1)C(=O)O)[C@H](c1ccc(O)c(O)c1)O2)O[C@H](Cc1ccc(O)c(O)c1)C(=O)O | 1.4 | 1 | 37.6% | 79% | 85% | 60.2% | 64.1% | 84.7%
5 | O=C1O[C@H]([C@@H](O)CO)C(O)=C1O [ASCORBIC ACID] | – | – | 26% | – | – | 31.8% | 58.5% | 74.9%
